Activity calls are given as the source filed them. No rule for the calls is given here.
Tested on: CCRIS mutagenicity, Ames/micronucleus/aberration tests
Assay: CCRIS mutagenicity studies
[1] = Test System: AMES SALMONELLA TYPHIMURIUM, Strain/Indicator: TA98, Metabolic Activation: NONE, Method: STANDARD PLATE
[2] = Test System: AMES SALMONELLA TYPHIMURIUM, Strain/Indicator: TA100, Metabolic Activation: NONE, Method: STANDARD PLATE
[3] = Test System: AMES SALMONELLA TYPHIMURIUM, Strain/Indicator: TA97, Metabolic Activation: NONE, Method: PREINCUBATION
[4] = Test System: AMES SALMONELLA TYPHIMURIUM, Strain/Indicator: TA100, Metabolic Activation: NONE, Method: PREINCUBATION
[5] = Test System: AMES SALMONELLA TYPHIMURIUM, Strain/Indicator: TA100, Metabolic Activation: RAT, LIVER, S-9, AROCLOR 1254, Method: STANDARD PLATE

Measured: mutagenic call

CC(=O)Nc1nc2c3cccnc3cc(C)c2n1C
inactive: Test System: AMES SALMONELLA TYPHIMURIUM, Strain/Indicator: TA98(1,8-DNP6), Metabolic Activation: RAT, LIVER, S-9, Method: STANDARD PLATE inactive; negative
active: Test System: AMES SALMONELLA TYPHIMURIUM, Strain/Indicator: TA98(NR), Metabolic Activation: RAT, LIVER, S-9, Method: STANDARD PLATE active; positive | Test System: AMES SALMONELLA TYPHIMURIUM, Strain/Indicator: TA98, Metabolic Activation: RAT, LIVER, S-9, Method: STANDARD PLATE active; positive | Test System: AMES SALMONELLA TYPHIMURIUM, Strain/Indicator: TA98, Method: STANDARD PLATE active; positive

c1ccc(CNc2ncnc3nc[nH]c23)cc1
inactive: [1] inactive; negative | Test System: AMES SALMONELLA TYPHIMURIUM, Strain/Indicator: TA98, Metabolic Activation: RAT LIVER S-9, 3-METHYLCHOLANTHRENE AND PHENOBARBITAL, Method: STANDARD PLATE inactive; negative | Test System: AMES SALMONELLA TYPHIMURIUM, Strain/Indicator: TA98, Metabolic Activation: RAT, LIVER, S-9, AROCLOR, Method: STANDARD PLATE inactive; negative | [2] inactive; negative | Test System: AMES SALMONELLA TYPHIMURIUM, Strain/Indicator: TA100, Metabolic Activation: RAT LIVER S-9, 3-METHYLCHOLANTHRENE AND PHENOBARBITAL, Method: STANDARD PLATE inactive; negative | Test System: AMES SALMONELLA TYPHIMURIUM, Strain/Indicator: TA100, Metabolic Activation: RAT, LIVER, S-9, AROCLOR, Method: STANDARD PLATE inactive; negative | Test System: CHINESE HAMSTER V-79, Strain/Indicator: V-79/6-THIOGUANINE (HGPRT), Metabolic Activation: NONE, Method: STANDARD PLATE inactive; negative

Nc1ccccc1S(=O)(=O)O
inactive: Test System: AMES SALMONELLA TYPHIMURIUM, Strain/Indicator: TA97, Metabolic Activation: HAMSTER, LIVER, S-9, AROCLOR 1254 (10 OR 30%), Method: PREINCUBATION inactive; negative | [3] inactive; negative | Test System: AMES SALMONELLA TYPHIMURIUM, Strain/Indicator: TA97, Metabolic Activation: RAT, LIVER, S-9, AROCLOR 1254 (10%), Method: PREINCUBATION inactive; negative | Test System: AMES SALMONELLA TYPHIMURIUM, Strain/Indicator: TA97, Metabolic Activation: RAT, LIVER, S-9, AROCLOR 1254 (30%), Method: PREINCUBATION inactive; negative | Test System: AMES SALMONELLA TYPHIMURIUM, Strain/Indicator: TA98, Metabolic Activation: HAMSTER, LIVER, S-9, AROCLOR 1254 (10 OR 30%), Method: PREINCUBATION inactive; negative | Test System: AMES SALMONELLA TYPHIMURIUM, Strain/Indicator: TA98, Metabolic Activation: RAT, LIVER, S-9, AROCLOR 1254 (10 OR 30%), Method: PREINCUBATION inactive; negative | Test System: AMES SALMONELLA TYPHIMURIUM, Strain/Indicator: TA100, Metabolic Activation: HAMSTER, LIVER, S-9, AROCLOR 1254 (10 OR 30%), Method: PREINCUBATION inactive; negative | [4] inactive; negative | Test System: AMES SALMONELLA TYPHIMURIUM, Strain/Indicator: TA100, Metabolic Activation: RAT, LIVER, S-9, AROCLOR 1254 (10 OR 30%), Method: PREINCUBATION inactive; negative | Test System: AMES SALMONELLA TYPHIMURIUM, Strain/Indicator: TA1535, Metabolic Activation: HAMSTER, LIVER, S-9, AROCLOR 1254 (10 OR 30%), Method: PREINCUBATION inactive; negative | Test System: AMES SALMONELLA TYPHIMURIUM, Strain/Indicator: TA1535, Metabolic Activation: NONE, Method: PREINCUBATION inactive; negative | Test System: AMES SALMONELLA TYPHIMURIUM, Strain/Indicator: TA1535, Metabolic Activation: RAT, LIVER, S-9, AROCLOR 1254 (10 OR 30%), Method: PREINCUBATION inactive; negative

c1cc2ccc3nc4ccccc4c4ccc(c1)c2c34
inactive: Test System: AMES SALMONELLA TYPHIMURIUM, Strain/Indicator: TA98, Metabolic Activation: NONE inactive; negative | Test System: AMES SALMONELLA TYPHIMURIUM, Strain/Indicator: TA100, Metabolic Activation: NONE inactive; negative
active: Test System: AMES SALMONELLA TYPHIMURIUM, Strain/Indicator: TA98, Metabolic Activation: S-9 active; positive | Test System: AMES SALMONELLA TYPHIMURIUM, Strain/Indicator: TA100, Metabolic Activation: S-9 active; positive

ClC1C(Cl)C(Cl)C(Cl)C(Cl)C1Cl (stereo unspecified)
inactive: Test System: AMES SALMONELLA TYPHIMURIUM, Strain/Indicator: TA97, Metabolic Activation: NONE, Method: STANDARD PLATE inactive; negative | Test System: AMES SALMONELLA TYPHIMURIUM, Strain/Indicator: TA97, Metabolic Activation: RAT, LIVER, S-9, AROCLOR 1254, Method: STANDARD PLATE inactive; negative | [1] inactive; negative | [2] inactive; negative | [5] inactive; negative | Test System: AMES SALMONELLA TYPHIMURIUM, Strain/Indicator: TA102, Metabolic Activation: NONE, Method: STANDARD PLATE inactive; negative | Test System: AMES SALMONELLA TYPHIMURIUM, Strain/Indicator: TA102, Metabolic Activation: RAT, LIVER, S-9, AROCLOR 1254, Method: STANDARD PLATE inactive; negative | Test System: CHINESE HAMSTER OVARY, Strain/Indicator: CHO (HPRT)/6-THIOGUANINE, Metabolic Activation: NONE inactive; negative | Test System: CHINESE HAMSTER OVARY, Strain/Indicator: CHO (HPRT)/6-THIOGUANINE, Metabolic Activation: S-9 inactive; negative | Test System: UDS HUMAN HEPATOCYTES, Strain/Indicator: THY INCORP, Metabolic Activation: NONE, Method: AUTORADIOGRAPHY inactive; negative | Test System: UDS MOUSE HEPATOCYTES, Strain/Indicator: THY INCORP, Metabolic Activation: NONE, Method: AUTORADIOGRAPHY inactive; negative | Test System: UDS RAT HEPATOCYTES, Strain/Indicator: THY INCORP, Metabolic Activation: NONE, Method: AUTORADIOGRAPHY inactive; negative
active: End Point: IN VITRO CHROMOSOMAL ABERRATIONS, Test System: HUMAN PERIPHERAL BLOOD LYMPHOCYTES, Metabolic Activation: NONE active; positive (structural changes)

CC(C)=CCc1ccc(O)c2c(=O)c3c(O)c4c(cc3oc12)O[C@H]1OC=C[C@@]41O
active: [1] active; positive | Test System: AMES SALMONELLA TYPHIMURIUM, Strain/Indicator: TA98, Metabolic Activation: RAT, LIVER, S-9, AROCLOR 1254, Method: STANDARD PLATE active; positive | [2] active; positive | [5] active; positive

COC(=O)/C(C#N)=C/c1ccccc1Br
inactive: Test System: AMES SALMONELLA TYPHIMURIUM, Strain/Indicator: TA1535, Metabolic Activation: NONE, Method: STANDARD PLATE inactive; negative | Test System: AMES SALMONELLA TYPHIMURIUM, Strain/Indicator: TA1535, Metabolic Activation: RAT, LIVER, S-9, AROCLOR 1254, Method: STANDARD PLATE inactive; negative

CC(=O)Oc1c2ccccc2c2ccc3cccc4ccc1c2c43
active: Test System: UDS RODENT PRIMARY CELLS, Strain/Indicator: THY INCORP (NON-S-PHASE), Metabolic Activation: NONE, Method: AUTORADIOGRAPHY active; positive

Cc1ccc2cc3c(c4c2c1CC4)[C@@H](O)[C@@H](O)c1ccccc1-3
active: Test System: CHINESE HAMSTER V-79, Strain/Indicator: V-79/8-AZAGUANINE, Metabolic Activation: NONE, Method: STANDARD PLATE active; positive

COc1ccc2c3c([nH]c2c1)C(C)=NCC3
inactive: [3] inactive; negative | Test System: AMES SALMONELLA TYPHIMURIUM, Strain/Indicator: TA97, Metabolic Activation: RAT, LIVER, S-9, AROCLOR 1254, Method: PREINCUBATION inactive; negative | Test System: AMES SALMONELLA TYPHIMURIUM, Strain/Indicator: TA98, Metabolic Activation: NONE, Method: PREINCUBATION inactive; negative | Test System: AMES SALMONELLA TYPHIMURIUM, Strain/Indicator: TA98, Metabolic Activation: RAT, LIVER, S-9, AROCLOR 1254, Method: PREINCUBATION inactive; negative | [4] inactive; negative | Test System: AMES SALMONELLA TYPHIMURIUM, Strain/Indicator: TA100, Metabolic Activation: RAT, LIVER, S-9, AROCLOR 1254, Method: PREINCUBATION inactive; negative | Test System: AMES SALMONELLA TYPHIMURIUM, Strain/Indicator: TA102, Metabolic Activation: NONE, Method: PREINCUBATION inactive; negative | Test System: AMES SALMONELLA TYPHIMURIUM, Strain/Indicator: TA102, Metabolic Activation: RAT, LIVER, S-9, AROCLOR 1254, Method: PREINCUBATION inactive; negative
